Measured values taken from patent US6461619B1 (Somerset Pharmaceuticals, Inc., priority 1998, dated 2002).
Structures can show the parent of a compound that is named as a salt.

Key:
[1] = molecular target: T1, monoamine oxidase B (Homo sapiens, UniProt P27338); details: background statement; cited from earlier work
T1 sequence (P27338 1-520): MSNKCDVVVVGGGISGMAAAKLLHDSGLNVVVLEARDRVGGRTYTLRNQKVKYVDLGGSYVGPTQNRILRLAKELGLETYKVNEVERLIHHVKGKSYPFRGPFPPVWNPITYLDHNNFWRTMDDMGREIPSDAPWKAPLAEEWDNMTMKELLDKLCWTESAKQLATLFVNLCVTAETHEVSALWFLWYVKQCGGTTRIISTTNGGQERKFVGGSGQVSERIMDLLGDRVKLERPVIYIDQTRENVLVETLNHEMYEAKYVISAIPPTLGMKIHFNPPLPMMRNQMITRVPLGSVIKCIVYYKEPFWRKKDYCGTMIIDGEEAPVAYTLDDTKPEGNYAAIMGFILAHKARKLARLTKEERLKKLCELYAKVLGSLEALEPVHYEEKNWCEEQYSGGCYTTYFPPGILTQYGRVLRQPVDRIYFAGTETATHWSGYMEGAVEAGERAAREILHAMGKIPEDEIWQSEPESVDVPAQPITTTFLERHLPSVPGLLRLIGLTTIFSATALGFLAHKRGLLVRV

[2] = tested on: second-degree burn wounds; assay: second-degree burn wound model, epidermal migration (epithelization) assessment; type: in vivo, Swine; details: for Percent of wounds completely epithelized / number of wounds healed (completely epithelized) over the number of wounds assessed: pig
Procedure: The ability of selegiline and desmethylselegiline to assist in the healing of burns was tested using a second-degree burn wound model. In second-degree burns, the entire surface of the epidermis is destroyed. An epidermal covering is regenerated from the remaining epithelial and epidermal cells adjacent to the burns. This phase of the healing process is called epithelization.
Swine were used for the experimental research animal because their skin has many morphological similarities to human skin. Seven young female specific pathogen free (SPF:Ken-O-Kaw Farms, Windsor, Ill.) pigs weighing 25-30 kg were kept in house for two weeks prior to initiating the experiment. These animals were fed a basal diet ad libitum and housed individually in facilities with controlled temperature (19-21° C.) and lights (12 h/12 h LD).
Experimental animals were clipped with standard animal clippers on the day of the experiment. The skin on the back and both sides of the animal was prepared for wounding by washing with a non-antibiotic soap and sterile water. Each animal was anesthetized i.m. with ketamine-HCl (20 mg/kg), xylazine (2 mg/kg) and atropine (0.05 mg/kg), followed by mask inhalation of an isoflurane and oxygen combination. Five specifically designed cylindrical brass rods weighing 358 g each were heated in a boiling water bath to 100° C. A rod was removed from the water bath and wiped dry before being applied to the skin surface to prevent water droplets from creating a steam burn on the skin. The brass rod was held at a vertical position on the skin for six seconds with all pressure being supplied by gravity in order to make a burn 8.5 mm diameter×0.8 mm deep. Immediately after burning, the roof of the burn blister was removed with a sterile spatula. The burn wounds were made approximately 2 cm from each other.
Approximately 90 burn wounds were made on the anterior two-thirds of the animal. The posterior third of the animal cannot be used because of anatomical differences in burn wound healing (a more rapid healing of burns has been observed at that position).
A total of seven animals were used and a total of fifteen wounds per treatment group were analyzed on each of days 7-12 after wounding. Treatments were coded to maintain blind study compliance. The burn wounds were treated with 25 ug of test article (enough to cover each wound). Treatments were allowed to penetrate into the sites for at least a 20 minute time period. Each treatment was applied within 20 minutes of blister removal and treatment occurred once a day for the first five days.
Beginning on day seven after wounding (day 0) and each day thereafter for four to six days, five burn wounds and the surrounding normal skin from each treatment area were excised using an electrokeratome. Any specimens that were not excised intact were discarded. The excised wounds and the surrounding normal skin were incubated in 0.5 M NaBr for 24 hours at 37° C. After incubation, the specimens were separated into epidermal and dermal sheets. The epidermis was examined macroscopically for defects in the area of the burn wounds. Epithelization was considered complete if no defect was present (healed). […] The epidermal sheet was placed on cardboard for a permanent record.
The number of wounds healed (completely epithelized) were divided by the total number of wounds sampled per day and multiplied by 100.

[3] = molecular target: T2, MAO-A (Homo sapiens, UniProt P21397); details: in comparison to selegiline, background statement; cited from earlier work
T2 sequence (P21397 1-527): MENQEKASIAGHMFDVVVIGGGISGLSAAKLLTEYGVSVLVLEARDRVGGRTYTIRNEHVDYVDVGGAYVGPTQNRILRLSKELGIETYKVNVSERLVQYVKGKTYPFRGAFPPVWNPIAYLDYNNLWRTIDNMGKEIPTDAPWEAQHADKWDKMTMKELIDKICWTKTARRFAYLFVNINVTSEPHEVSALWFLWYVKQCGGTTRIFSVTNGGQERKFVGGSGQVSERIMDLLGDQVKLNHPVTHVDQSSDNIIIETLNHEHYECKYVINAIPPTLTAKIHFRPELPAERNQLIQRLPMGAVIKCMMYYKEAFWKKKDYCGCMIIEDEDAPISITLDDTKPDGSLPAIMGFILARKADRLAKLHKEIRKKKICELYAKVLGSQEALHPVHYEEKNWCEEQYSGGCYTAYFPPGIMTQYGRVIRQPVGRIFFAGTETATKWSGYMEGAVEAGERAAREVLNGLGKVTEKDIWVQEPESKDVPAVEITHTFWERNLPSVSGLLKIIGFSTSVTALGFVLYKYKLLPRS

[4] = 10^-4M topical, day 7 after burning
[5] = 10^-4M topical, day 8 after burning
[6] = 10^-4M topical, day 9 after burning
[7] = 10^-4M topical, day 10 after burning
[8] = 10^-4M topical, day 11 after burning
[9] = 10^-4M topical, day 12 after burning
[10] = 10^-4M topical, day 13 after burning
[11] = 10^-6M topical, day 7 after burning
[12] = 10^-6M topical, day 8 after burning
[13] = 10^-6M topical, day 9 after burning
[14] = 10^-6M topical, day 10 after burning
[15] = 10^-8M topical, day 7 after burning
[16] = 10^-8M topical, day 8 after burning
[17] = 10^-8M topical, day 9 after burning
[18] = 10^-8M topical, day 10 after burning
[19] = 10^-8M topical, day 11 after burning
[20] = 10^-8M topical, day 12 after burning
[21] = 10^-8M topical, day 13 after burning

## C#CCNC(C)Cc1ccccc1 (centres unmarked) [desmethylselegiline HCl, desmethylselegiline]
[1]
  MAO-B inhibitory activity: reduced MAO-B inhibitory activity in comparison to selegiline
[2]; [4]
  Percent of wounds completely epithelized: (0%)
  number of wounds healed (completely epithelized) over the number of wounds assessed:  0/15
[2]; [5]
  Percent of wounds completely epithelized: (0%)
  number of wounds healed (completely epithelized) over the number of wounds assessed:  0/15
[2]; [6]
  Percent of wounds completely epithelized: (0%)
  number of wounds healed (completely epithelized) over the number of wounds assessed:  0/15
[2]; [7]
  Percent of wounds completely epithelized: (0%)
  number of wounds healed (completely epithelized) over the number of wounds assessed:  0/15
[2]; [8]
  Percent of wounds completely epithelized: 7%
  number of wounds healed (completely epithelized) over the number of wounds assessed:  1/15
[2]; 10^-4M topical, day 11 after burning, listed as B-1
  Percent of wounds completely epithelized: (7%)
[2]; [9]
  Percent of wounds completely epithelized: 33%
  number of wounds healed (completely epithelized) over the number of wounds assessed:  5/15
[2]; 10^-4M topical, day 12 after burning, listed as B-1
  Percent of wounds completely epithelized: (33%)
[2]; [10]
  Percent of wounds completely epithelized: 69%
  number of wounds healed (completely epithelized) over the number of wounds assessed: {fraction (11/16 )}
[2]; 10^-4M topical, day 13 after burning, listed as B-1
  Percent of wounds completely epithelized: (69%)
[2]; 10^-6 M
  time to complete epithelization compared with other treatment groups: completely epithelized sooner than all other treatment groups
[2]; [11]
  Percent of wounds completely epithelized: (0%)
  number of wounds healed (completely epithelized) over the number of wounds assessed:  0/15
[2]; [12]
  Percent of wounds completely epithelized: (0%)
  number of wounds healed (completely epithelized) over the number of wounds assessed:  0/15
[2]; [13]
  Percent of wounds completely epithelized: (0%)
  number of wounds healed (completely epithelized) over the number of wounds assessed:  0/15
[2]; [14]
  Percent of wounds completely epithelized: (0%)
  number of wounds healed (completely epithelized) over the number of wounds assessed:  0/15
[2]; 10^-6M topical, day 11 after burning
  number of wounds healed (completely epithelized) over the number of wounds assessed:  5/15
[2]; 10^-6M topical, day 12 after burning
  number of wounds healed (completely epithelized) over the number of wounds assessed:  7/15
[2]; 10^-6M topical, day 13 after burning
  number of wounds healed (completely epithelized) over the number of wounds assessed:  6/16
[2]; [15]
  Percent of wounds completely epithelized: (0%)
  number of wounds healed (completely epithelized) over the number of wounds assessed:  0/15
[2]; [16]
  Percent of wounds completely epithelized: (0%)
  number of wounds healed (completely epithelized) over the number of wounds assessed:  0/15
[2]; [17]
  Percent of wounds completely epithelized: (0%)
  number of wounds healed (completely epithelized) over the number of wounds assessed:  0/15
[2]; [18]
  Percent of wounds completely epithelized: (0%)
  number of wounds healed (completely epithelized) over the number of wounds assessed:  0/15
[2]; [19]
  Percent of wounds completely epithelized: 33%
  number of wounds healed (completely epithelized) over the number of wounds assessed:  5/15
[2]; 10^-8M topical, day 11 after burning, listed as B-3
  Percent of wounds completely epithelized: (33%)
[2]; [20]
  Percent of wounds completely epithelized: 67%
  number of wounds healed (completely epithelized) over the number of wounds assessed: {fraction (10/15 )}
[2]; 10^-8M topical, day 12 after burning, listed as B-3
  Percent of wounds completely epithelized: (67%)
[2]; [21]
  Percent of wounds completely epithelized: 67%
  number of wounds healed (completely epithelized) over the number of wounds assessed: {fraction (40/15 )}
[2]; 10^-8M topical, day 13 after burning, listed as B-3
  Percent of wounds completely epithelized: (67%)
[2]; day thirteen, all concentrations
  percentage of wounds completely epithelized compared with other groups: higher percentage of wounds completely epithelized on day thirteen
[2]; first three days of treatment, normal again after 15 minutes
  wound crust colour during absorption of applied agent: more pronounced
[3]
  inhibition of MAO-A: decreased to an even greater extent
